O=[N+]([O-])/N=C1\NCCN1Cc1ccc(Cl)nc1
Conditions	solubility (mole fraction)
in 1,2-dichloroethane, 299.96 K	0.00987
in 1,2-dichloroethane, 302.87 K	0.0108
in 1,2-dichloroethane, 304.97 K	0.0116
in 1,2-dichloroethane, 310.08 K	0.0142
in 1,2-dichloroethane, 314.14 K	0.0161
in 1,2-dichloroethane, 317.43 K	0.0183
in 1,2-dichloroethane, 321.31 K	0.0213
in 1,2-dichloroethane, 325.67 K	0.0243
in 1,2-dichloroethane, 328.74 K	0.0271
in 1,2-dichloroethane, 331.34 K	0.0309
in 1,2-dichloroethane, 333.75 K	0.0345
in 1,2-dichloroethane, 336.91 K	0.0392
in 1,2-dichloroethane, 339.95 K	0.0442
in 1,2-dichloroethane, 342.81 K	0.049
in 1,2-dichloroethane, 345.2 K	0.0546
in 1,2-dichloroethane, 347.1 K	0.0612
in 2-butanone, 293.07 K	0.0159
in 2-butanone, 299.44 K	0.0192
in 2-butanone, 302.54 K	0.0213
in 2-butanone, 306.3 K	0.0238
in 2-butanone, 308.85 K	0.026
in 2-butanone, 311.24 K	0.0281
in 2-butanone, 314.22 K	0.0308
in 2-butanone, 318.19 K	0.0346
in 2-butanone, 320.83 K	0.0379
in 2-butanone, 323.87 K	0.0419
in 2-butanone, 326.73 K	0.046
in 2-butanone, 329.81 K	0.0504
in 2-butanone, 332.97 K	0.0573
in 2-butanone, 335.21 K	0.0617
in 2-butanone, 337.54 K	0.0678
in 2-butanone, 340.65 K	0.0749
in 2-butanone, 343.2 K	0.0823
in acetone, 294.64 K	0.012
in acetone, 300.05 K	0.0141
in acetone, 301.76 K	0.0148
in acetone, 305.05 K	0.0162
in acetone, 307.77 K	0.0175
in acetone, 310.17 K	0.0187
in acetone, 317.25 K	0.0232
in acetone, 319.14 K	0.0248
in acetone, 321.59 K	0.0265
in acetone, 327.89 K	0.0325
in acetone, 330.2 K	0.0353
in chloroform, 292.04 K	0.00848
in chloroform, 294.49 K	0.00916
in chloroform, 298.22 K	0.0102
in chloroform, 303.84 K	0.0115
in chloroform, 307.04 K	0.0123
in chloroform, 310.05 K	0.0132
in chloroform, 314.03 K	0.0143
in chloroform, 316.75 K	0.0153
in chloroform, 319.07 K	0.0167
in chloroform, 321.74 K	0.0183
in chloroform, 324.64 K	0.0198
in chloroform, 326.71 K	0.0215
in chloroform, 330.16 K	0.024
in dichloromethane, 293.97 K	0.0132
in dichloromethane, 295.96 K	0.0146
in dichloromethane, 298 K	0.0157
in dichloromethane, 300.05 K	0.0166
in dichloromethane, 302.6 K	0.0177
in dichloromethane, 303.99 K	0.0189
in dichloromethane, 305.96 K	0.0199
in dichloromethane, 307.8 K	0.0211
in dichloromethane, 309.6 K	0.0223
in dichloromethane, 311.66 K	0.0236
in dichloromethane, 313.14 K	0.0248
in dichloromethane, 313.93 K	0.0254
in ethanol, 298.69 K	0.000502
in ethanol, 301.12 K	0.000569
in ethanol, 305.66 K	0.000794
in ethanol, 308.87 K	0.001
in ethanol, 312.34 K	0.00118
in ethanol, 315.96 K	0.00136
in ethanol, 318.07 K	0.00151
in ethanol, 320.74 K	0.0017
in ethanol, 323.96 K	0.00197
in ethanol, 327.54 K	0.00225
in ethanol, 330.06 K	0.00251
in ethanol, 333.57 K	0.00289
in methanol, 293.79 K	0.00102
in methanol, 295.38 K	0.00111
in methanol, 299.81 K	0.00136
in methanol, 302.15 K	0.00156
in methanol, 305.86 K	0.00179
in methanol, 309.32 K	0.00211
in methanol, 312.62 K	0.00247
in methanol, 315.38 K	0.00283
in methanol, 320.59 K	0.00361
in methanol, 323.37 K	0.00413
in methanol, 328.11 K	0.0053
in methanol, 330.75 K	0.00598
in methanol, 333.34 K	0.00676
in water, 302.76 K	2.68e-05
in water, 308.62 K	3.94e-05
in water, 314.75 K	4.87e-05
in water, 324.15 K	8.35e-05
in water, 329.34 K	0.000119
in water, 330.75 K	0.000132
in water, 334.52 K	0.000169
in water, 340.44 K	0.000231
in water, 344.57 K	0.000287
in water, 346.87 K	0.000323
in water, 348.94 K	0.000363

Reference: BigSolDB 2.1
